Reference: patent publication US8067424B2, “Selective inhibitors for cyclin-dependent kinases” (Emory University, priority 2007, dated 2011)
Read-outs that look alike come from different tables or passages of the source.

Columns and labels:
JNK3 = JNK3 (Homo sapiens, UniProt P53779); assay: Kinase screen: JNK3 alpha 1 assay; assay type: biochemical; settings: read-out: Mean Remaining Enzyme Activity (%)
Description: Generally, the same procedure was used for all assays. Since the total assay volume was 25.5 microliters, 0.5 microliters of inhibitors at 51× assay concentration were added to the plates before any other addition.
The basic procedure was to add 0.5 microliters inhibitor/control in DMSO to plate. Fifteen microliters of enzyme/substrate/buffer mix were added and incubated for 5 min. Ten microliters MgATP at the relevant concentration were added and incubated for 30 min. The assay was stopped by adding 5 microliters of 3% orthophosphoric acid. The assay was transferred to a p81 filter plate and read in a scintillation counter of 30 sec/well. Note that this assay procedure was not followed for MKK1, which instead involved a two-step assay, and PKC alpha, which required the addition of lipid vesicles.
JNK3 alpha 1 assay: JNK3 alpha 1(5-20 mU diluted in 50 mM Tris (pH 7.5), 0.1 mM EGTA, 1 mg/ml BSA, 0.1% b-mercaptoethanol) was assayed against ATF2 (activating transcription factor in a final volume of 25.5 μl in 50 mM Tris pH 7.5, 0.1 mM EGTA, 0.1% b-Mercaptoethanol, ATF2 (3 μM), 10 mM magnesium acetate and 0.05 mM [33P-g-ATP] (500-1000 cpm/pmole) and incubated for 30 min at room temperature. Assays were stopped by addition of 5 μl of 0.5 M (3%) orthophosphoric acid and then harvested onto P81 Unifilter plates with a wash buffer of 50 mM orthophosphoric acid.

SR = settings: for Mean Optical Densities / Percent Growth: SR
LOX IMVI = settings: for Mean Optical Densities / Percent Growth: LOX IMVI
MALME-3M = settings: for Mean Optical Densities / Percent Growth: MALME-3M
NCI/ADR-RES = settings: for Mean Optical Densities / Percent Growth: NCI/ADR-RES
MDA-MB-231/ATCC [1] = settings: for Mean Optical Densities / Percent Growth: MDA-MB-231/ATCC
MOLT-4 = assay: cells; settings: Homo sapiens
NCI-H23 = assay: cells; settings: Homo sapiens
UACC-62 = assay: cells; settings: Homo sapiens
MDA-MB-231/ATCC [2] = assay: cells; settings: Homo sapiens
[3] = RPMI-8226, log10 concentration −4.0
[4] = RPMI-8226, log10 concentration −5.0
[5] = RPMI-8226, log10 concentration −6.0
[6] = RPMI-8226, log10 concentration −7.0
[7] = RPMI-8226, log10 concentration −8.0
[8] = TK-10, log10 concentration −4.0
[9] = TK-10, log10 concentration −5.0
[10] = TK-10, log10 concentration −6.0
[11] = TK-10, log10 concentration −7.0
[12] = TK-10, log10 concentration −8.0
[13] = MDA-MB-435, log10 concentration −4.0
[14] = MDA-MB-435, log10 concentration −5.0
[15] = MDA-MB-435, log10 concentration −6.0
[16] = MDA-MB-435, log10 concentration −7.0
[17] = MDA-MB-435, log10 concentration −8.0

JNK3, sequence (P53779 1-422 isoform P53779-2, species assumed): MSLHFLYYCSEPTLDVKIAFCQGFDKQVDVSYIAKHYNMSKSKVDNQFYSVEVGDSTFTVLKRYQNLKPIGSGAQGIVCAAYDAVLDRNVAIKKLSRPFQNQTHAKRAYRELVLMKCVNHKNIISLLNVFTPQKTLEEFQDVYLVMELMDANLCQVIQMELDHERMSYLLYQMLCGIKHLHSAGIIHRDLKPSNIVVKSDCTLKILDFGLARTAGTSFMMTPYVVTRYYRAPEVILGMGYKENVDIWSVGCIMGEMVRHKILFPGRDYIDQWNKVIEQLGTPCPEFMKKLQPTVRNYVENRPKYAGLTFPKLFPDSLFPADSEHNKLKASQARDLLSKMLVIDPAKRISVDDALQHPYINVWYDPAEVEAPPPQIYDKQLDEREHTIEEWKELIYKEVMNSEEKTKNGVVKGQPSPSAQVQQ

CC(C)c1cnn2c(NCc3ccccc3)cc(NCCCCCCCN)nc12 [BS-181]
remaining activity at 10 µM (JNK3): 128%

CC(C)c1cnn2c(NCc3ccccc3)cc(N[C@@H](CO)[C@H](O)CO)nc12 [ICEC0318, (3S)-3-(7-(Benzylamino)-3-isopropylpyrazolo[1,5-a]pyrimidin-5-ylamino)butane-1,2,4-triol]
TGI (RPMI-8226; RPMI-8226 (Leukemia)): >1.00E−4
Mean Optical Densities (RPMI-8226; [3]): 0.249
Percent Growth (RPMI-8226; [3]): 7%
Mean Optical Densities (RPMI-8226; [4]): 0.302
Percent Growth (RPMI-8226; [4]): 18%
Mean Optical Densities (RPMI-8226; [5]): 0.311
Percent Growth (RPMI-8226; [5]): 19%
Mean Optical Densities (RPMI-8226; [6]): 0.556
Percent Growth (RPMI-8226; [6]): 67%
Mean Optical Densities (RPMI-8226; [7]): 0.595
Percent Growth (RPMI-8226; [7]): 75%
TGI (SR; SR (Leukemia)): >1.00E−4
Mean Optical Densities (SR; log10 concentration −4.0): 0.239
Percent Growth (SR; log10 concentration −4.0): 7%
Mean Optical Densities (SR; log10 concentration −5.0): 0.244
Percent Growth (SR; log10 concentration −5.0): 8%
Mean Optical Densities (SR; log10 concentration −6.0): 0.275
Percent Growth (SR; log10 concentration −6.0): 16%
Mean Optical Densities (SR; log10 concentration −7.0): 0.394
Percent Growth (SR; log10 concentration −7.0): 45%
Mean Optical Densities (SR; log10 concentration −8.0): 0.548
Percent Growth (SR; log10 concentration −8.0): 83%
TGI (U251; U251 (CNS Cancer)): >1.00E−4
Mean Optical Densities (U251; U251, log10 concentration −4.0): 0.262
Percent Growth (U251; U251, log10 concentration −4.0): 2%
Mean Optical Densities (U251; U251, log10 concentration −5.0): 0.289
Percent Growth (U251; U251, log10 concentration −5.0): 5%
Mean Optical Densities (U251; U251, log10 concentration −6.0): 0.299
Percent Growth (U251; U251, log10 concentration −6.0): 6%
Mean Optical Densities (U251; U251, log10 concentration −7.0): 0.999
Percent Growth (U251; U251, log10 concentration −7.0): 81%
Mean Optical Densities (U251; U251, log10 concentration −8.0): 1.168
Percent Growth (U251; U251, log10 concentration −8.0): 99%
TGI (LOX IMVI; LOX IMVI (Melanoma)): 1.46E−5
Mean Optical Densities (LOX IMVI; log10 concentration −4.0): 0.224
Percent Growth (LOX IMVI; log10 concentration −4.0): −19%
Mean Optical Densities (LOX IMVI; log10 concentration −5.0): 0.328
Percent Growth (LOX IMVI; log10 concentration −5.0): 4%
Mean Optical Densities (LOX IMVI; log10 concentration −6.0): 0.326
Percent Growth (LOX IMVI; log10 concentration −6.0): 4%
Mean Optical Densities (LOX IMVI; log10 concentration −7.0): 1.208
Percent Growth (LOX IMVI; log10 concentration −7.0): 64%
Mean Optical Densities (LOX IMVI; log10 concentration −8.0): 1.614
Percent Growth (LOX IMVI; log10 concentration −8.0): 92%
TGI (MALME-3M; MALME-3M (Melanoma)): 1.09E−6
Mean Optical Densities (MALME-3M; log10 concentration −4.0): 0.398
Percent Growth (MALME-3M; log10 concentration −4.0): −29%
Mean Optical Densities (MALME-3M; log10 concentration −5.0): 0.458
Percent Growth (MALME-3M; log10 concentration −5.0): −19%
Mean Optical Densities (MALME-3M; log10 concentration −6.0): 0.565
Percent Growth (MALME-3M; log10 concentration −6.0): 1%
Mean Optical Densities (MALME-3M; log10 concentration −7.0): 1.008
Percent Growth (MALME-3M; log10 concentration −7.0): 126%
Mean Optical Densities (MALME-3M; log10 concentration −8.0): 0.958
Percent Growth (MALME-3M; log10 concentration −8.0): 112%
TGI (TK-10; TK-10 (Renal Cancer)): >1.00E−4
Mean Optical Densities (TK-10; [8]): 0.610
Percent Growth (TK-10; [8]): 18%
Mean Optical Densities (TK-10; [9]): 0.593
Percent Growth (TK-10; [9]): 15%
Mean Optical Densities (TK-10; [10]): 0.572
Percent Growth (TK-10; [10]): 12%
Mean Optical Densities (TK-10; [11]): 1.192
Percent Growth (TK-10; [11]): 101%
Mean Optical Densities (TK-10; [12]): 1.202
Percent Growth (TK-10; [12]): 103%
TGI (NCI/ADR-RES; NCI/ADR-RES (Breast Cancer)): >1.00E−4
Mean Optical Densities (NCI/ADR-RES; log10 concentration −4.0): 0.531
Percent Growth (NCI/ADR-RES; log10 concentration −4.0): 10%
Mean Optical Densities (NCI/ADR-RES; log10 concentration −5.0): 0.657
Percent Growth (NCI/ADR-RES; log10 concentration −5.0): 22%
Mean Optical Densities (NCI/ADR-RES; log10 concentration −6.0): 1.107
Percent Growth (NCI/ADR-RES; log10 concentration −6.0): 63%
Mean Optical Densities (NCI/ADR-RES; log10 concentration −7.0): 1.638
Percent Growth (NCI/ADR-RES; log10 concentration −7.0): 111%
Mean Optical Densities (NCI/ADR-RES; log10 concentration −8.0): 1.587
Percent Growth (NCI/ADR-RES; log10 concentration −8.0): 107%
TGI (MDA-MB-231/ATCC [1]; MDA-MB-231/ATCC (Breast Cancer)): >1.00E−4
Mean Optical Densities (MDA-MB-231/ATCC [1]; log10 concentration −4.0): 0.482
Percent Growth (MDA-MB-231/ATCC [1]; log10 concentration −4.0): 11%
Mean Optical Densities (MDA-MB-231/ATCC [1]; log10 concentration −5.0): 0.529
Percent Growth (MDA-MB-231/ATCC [1]; log10 concentration −5.0): 19%
Mean Optical Densities (MDA-MB-231/ATCC [1]; log10 concentration −6.0): 0.548
Percent Growth (MDA-MB-231/ATCC [1]; log10 concentration −6.0): 22%
Mean Optical Densities (MDA-MB-231/ATCC [1]; log10 concentration −7.0): 1.039
Percent Growth (MDA-MB-231/ATCC [1]; log10 concentration −7.0): 101%
Mean Optical Densities (MDA-MB-231/ATCC [1]; log10 concentration −8.0): 1.087
Percent Growth (MDA-MB-231/ATCC [1]; log10 concentration −8.0): 109%
TGI (MDA-MB-435; MDA-MB-435 (Breast Cancer)): 1.15E−5
Mean Optical Densities (MDA-MB-435; [13]): 0.242
Percent Growth (MDA-MB-435; [13]): −48%
Mean Optical Densities (MDA-MB-435; [14]): 0.511
Percent Growth (MDA-MB-435; [14]): 3%
Mean Optical Densities (MDA-MB-435; [15]): 0.659
Percent Growth (MDA-MB-435; [15]): 13%
Mean Optical Densities (MDA-MB-435; [16]): 1.781
Percent Growth (MDA-MB-435; [16]): 86%
Mean Optical Densities (MDA-MB-435; [17]): 2.132
Percent Growth (MDA-MB-435; [17]): 109%
GI50 (MOLT-4; MOLT-4): 259 nM
CC50 (MOLT-4; MOLT-4, read-out: LC50): > 100000 nM
GI50 (NCI-H23; NCI-H23): 260 nM
CC50 (NCI-H23; NCI-H23, read-out: LC50): > 100000 nM
GI50 (UACC-62; UACC-62): 155 nM
CC50 (UACC-62; UACC-62, read-out: LC50): 644 nM
GI50 (MDA-MB-231/ATCC [2]; MDA-MB-231): 438 nM
CC50 (MDA-MB-231/ATCC [2]; MDA-MB-231, read-out: LC50): > 100000 nM
